Test results reported in patent EP3714904B1, “IMINODIACETIC ACID SUBSTITUTED CYCLODEXTRINS AS POTENTIATORS OF BETA-LACTAM ANTIBIOTICS” (NATIONAL CENTER FOR SCIENTIFIC RESEARCH "DEMOKRITOS" (NCSRD), priority 2019, dated 2020).
Like-named read-outs stand apart in the source and are kept apart here.

Columns and labels:
Acinetobacter baumannii = assay: MIC of β-lactams alone or with 50 µM IDACYD against clinical isolates; type: cell-based; settings: Acinetobacter baumannii, alone
Procedure: (§1) Further the in-vitro inhibitory activity of IDACYDs was tested against highly resistant pathogens. Tables 3, 4 and 5 show the effect of IDACYDs using a collection of 36 highly resistant Gram negative strains (Table 2, Kirby-Bauer disc diffusion method) producing NDM, VIM and IMP type MBLs as well as 6 isolates expressing serine beta-lactamases (ESBLs, AmpCs). […] Clinical isolates co-expressing ESBLs and/or AmpC β-lactamases along with MBLs where re-sensitized to both imipenem and meropenem, as expected. Table 2: Collection of clinical isolates used for in-vitro evaluation

Serratia marcescens = assay: as above; type: cell-based; settings: Serratia marcescens, read-out: Meropenem MIC; isolate EUG-815 (VIM, CMY); alone
Procedure: as §1

Providencia stuartii = assay: as above; type: cell-based; settings: Providencia stuartii, alone
Procedure: as §1

Proteus mirabilis = assay: as above; type: cell-based; settings: Proteus mirabilis, alone
Procedure: as §1

Escherichia coli = assay: as above; type: cell-based; settings: Escherichia coli, alone
Procedure: as §1

Enterobacter gergoviae = assay: as above; type: cell-based; settings: Pluralibacter gergoviae, alone
Procedure: as §1

[1] = tested on: NDM-1 producing K. pneumoniae strain LA26; assay: Murine sepsis model: single dose treatment scheme-2; type: in vivo, CD-1 mice; settings: meropenem monotherapy, single dose 10 mg/kg; within 48 h
Procedure: Example 9. […] Blood samples were collected at 0, 6 and 24 hours after injection of a single dose of antibiotic (4 infected animals for each timepoint), were serially diluted in normal saline (10^-1 to 10^-9) and plated on MH agar plates which were incubated for 16 hours at 37°C for determination of viable organisms. […] The resulting 3.0log10 reduction in the blood bacterial load in the presence of 120 mg/kg of the inhibitor β-IDACYD compared to the antibiotic itself confirmed the high repotentiation abilities of the inhibitor to carbapenems even for suboptimal antibiotic doses. […] Treatment was given in a form of a single shot 2h after infection and blood was drawn 0h, 6h and 24h post treatment initiation. All groups were of n=10. Error bars are indicative of SEM (n=2 replicates).

[2] = biological target: T1, MBL containing crude enzyme preparation (Kpn LA-26 NDM-1) (Klebsiella pneumoniae, UniProt C7C422); assay: 1H NMR monitoring of meropenem hydrolysis by MBL crude enzyme preparation; type: biochemical; settings: meropenem 0.18 mM, absence of β-IDACYD, 6 h incubation
T1 construct: an MBL containing crude enzyme preparation (Kpn LA-26 NDM-1, 485 µL); endogenous in cells; host or cells: Klebsiella pneumoniae clinical strain LA-26 (crude enzyme preparation)

Klebsiella pneumoniae = assay: MIC of β-lactams alone or with 50 µM IDACYD against clinical isolates; type: cell-based; settings: Klebsiella pneumoniae, alone
Procedure: Further the in-vitro inhibitory activity of IDACYDs was tested against highly resistant pathogens. […] Table 2: Collection of clinical isolates used for in-vitro evaluation

T1 sequence (C7C422 29-270 limits assumed): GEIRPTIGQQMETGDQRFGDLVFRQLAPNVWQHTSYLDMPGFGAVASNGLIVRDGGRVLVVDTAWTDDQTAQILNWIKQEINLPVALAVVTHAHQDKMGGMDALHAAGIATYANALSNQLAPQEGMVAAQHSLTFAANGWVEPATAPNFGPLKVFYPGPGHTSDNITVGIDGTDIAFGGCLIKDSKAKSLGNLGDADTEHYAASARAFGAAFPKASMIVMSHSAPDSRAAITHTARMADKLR

Compound: C[C@@H](O)[C@H]1C(=O)N2C(C(=O)O)=C(S[C@@H]3CN[C@H](C(=O)N(C)C)C3)[C@H](C)[C@H]12 [Meropenem, reference compound]
- MIC (Acinetobacter baumannii; read-out: Meropenem MIC, isolate TZAN-40 (VIM, OXA-58)): 4 µg/mL
- MIC (Acinetobacter baumannii; read-out: Meropenem MIC, isolate TZAN-42 (VIM, OXA-58)): 32 µg/mL
- MIC (Serratia marcescens): 256 µg/mL
- MIC (Providencia stuartii; read-out: Meropenem MIC, isolate ALX- 21 (VIM, VEB)): 2 µg/mL
- MIC (Providencia stuartii; read-out: Meropenem MIC, isolate ALX-27 (VIM)): 2 µg/mL
- MIC (Providencia stuartii; read-out: Meropenem MIC, isolate ESDY-4559 (VIM)): 4 µg/mL
- MIC (Providencia stuartii; read-out: Meropenem MIC, isolate ESDY-4563 (VIM, VEB)): 2 µg/mL
- MIC (Proteus mirabilis; read-out: Meropenem MIC, Table 5, Pr m ESDY 15315 (VIM-1, CMY)): 16 µg/mL
- MIC (Proteus mirabilis; read-out: Meropenem MIC, isolate ALX-13 (VIM, VEB)): 32 µg/mL
- MIC (Proteus mirabilis; read-out: Meropenem MIC, isolate ESDY-17 (VIM, CMY)): 0.25 µg/mL
- MIC (Proteus mirabilis; read-out: Meropenem MIC, isolate ESDY-15184 (VIM, CMY)): 2 µg/mL
- MIC (Proteus mirabilis; read-out: Meropenem MIC, isolate ESDY-15315 (VIM, CMY)): 4 µg/mL
- MIC (Escherichia coli; read-out: Meropenem MIC, isolate TZAN-116 (VIM)): 1 µg/mL
- MIC (Escherichia coli; read-out: Meropenem MIC, isolate TZAN-541 (VIM)): 2 µg/mL
- MIC (Enterobacter gergoviae; read-out: Meropenem MIC, isolate AK-5227 (VIM, CMY)): 2 µg/mL
- MIC (Enterobacter gergoviae; read-out: Meropenem MIC, isolate AK-5240 (VIM, CMY)): 1 µg/mL
- protection from death [1]: unable to protect any mice from death
- drug hydrolyzed [2]: ~100%
- MIC (Klebsiella pneumoniae; read-out: Meropenem MIC, Kpn ESDY 5742 (IMP-1)): 32 µg/mL
- MIC (Klebsiella pneumoniae; read-out: Meropenem MIC, Kpn LA 26 (NDM-1)): 32 µg/mL
- MIC (Klebsiella pneumoniae; read-out: Meropenem MIC, Kpn LA 34 (VIM-1 CMY)): 256 µg/mL
- MIC (Klebsiella pneumoniae; read-out: Meropenem MIC, Kpn LA 82/16 (VIM-1)): 64 µg/mL
- MIC (Klebsiella pneumoniae; read-out: Meropenem MIC, Kpn LA 109/16 (VIM-1)): 256 µg/mL
- MIC (Klebsiella pneumoniae; read-out: Meropenem MIC, Kpn LA419/16 (NDM-1)): 16 µg/mL
- MIC (Klebsiella pneumoniae; read-out: Meropenem MIC, isolate ALX-47 (OXA-48,CTX-M)): 8 µg/mL
- MIC (Klebsiella pneumoniae; read-out: Meropenem MIC, isolate ESDY-1780 (VIM, KPC)): 64 µg/mL
- MIC (Klebsiella pneumoniae; read-out: Meropenem MIC, isolate ESDY-5742 (IMP)): 16 µg/mL
- MIC (Klebsiella pneumoniae; read-out: Meropenem MIC, isolate EY-20S (CMY, SHV)): 8 µg/mL
- MIC (Klebsiella pneumoniae; read-out: Meropenem MIC, isolate IT-17829 (CTXM, SHV)): 32 µg/mL
- MIC (Klebsiella pneumoniae; read-out: Meropenem MIC, isolate L078/11 (KPC)): 64 µg/mL
- MIC (Klebsiella pneumoniae; read-out: Meropenem MIC, isolate LA-26 (NDM)): 32 µg/mL
- MIC (Klebsiella pneumoniae; read-out: Meropenem MIC, isolate LA-27 (NDM, CTXM)): 8 µg/mL
- MIC (Klebsiella pneumoniae; read-out: Meropenem MIC, isolate LA-28 (NDM, CTXM)): 64 µg/mL
- MIC (Klebsiella pneumoniae; read-out: Meropenem MIC, isolate LA-34 (VIM, CMY), first entry of Table 3): 256 µg/mL
- MIC (Klebsiella pneumoniae; read-out: Meropenem MIC, isolate LA-34 (VIM, CMY), second entry of Table 3): 64 µg/mL
- MIC (Klebsiella pneumoniae; read-out: Meropenem MIC, isolate LA-82/16 (VIM, SHV)): 64 µg/mL
- MIC (Klebsiella pneumoniae; read-out: Meropenem MIC, isolate LA-419/16 (NDM,CTXM)): 16 µg/mL
- MIC (Klebsiella pneumoniae; read-out: Meropenem MIC, isolate LAR-26I/15 (NDM, VIM, CTXM)): 64 µg/mL
- MIC (Klebsiella pneumoniae; read-out: Meropenem MIC, isolate LAR-38I/15 (VIM, NDM, CTXM)): 16 µg/mL
- MIC (Klebsiella pneumoniae; read-out: Meropenem MIC, isolate LAR-40II/15 (KPC)): 64 µg/mL
- MIC (Klebsiella pneumoniae; read-out: Meropenem MIC, isolate LAR-2873 (VIM-12)): 8 µg/mL
- MIC (Klebsiella pneumoniae; read-out: Meropenem MIC, isolate SEC-2 (VIM)): 64 µg/mL
- MIC (Klebsiella pneumoniae; read-out: Meropenem MIC, isolate SEC-4 (VIM)): 32 µg/mL
- MIC (Klebsiella pneumoniae; read-out: Meropenem MIC, isolate TZAN-59 (β-lactamase: None)): 0.5 µg/mL
- MIC (Klebsiella pneumoniae; read-out: Meropenem MIC, isolate UoA 12/227 (VIM)): 64 µg/mL
- MIC (Klebsiella pneumoniae; read-out: Meropenem MIC, isolate UoA 1995 (VIM)): 64 µg/mL
